These results are taken from patent US20100184819A1, “METHOD FOR REDUCING INTRACRANIAL PRESSURE” (priority 2007, published 2010).

Test [1] deals with blood brain barrier permeability after injury. As to the kind of experiment: Attenuation of blood brain barrier permeability after injury (dose finding). Format: in vivo, rat. Particulars: intravenous, 30 min after induction of injury. On the procedure: N-acetyl-tryptophan was dissolved in sterile, normal saline, and administered by intravenous injection at 30 min after induction of injury. […] The optimal dose, based on the ability of the drug to attenuate blood brain barrier permeability after injury, was 2.5 mg/kg.

Test [2] relates to sheep model of diffuse traumatic brain injury. As to the kind of experiment: Brain tissue oxygenation (PbtO2) in the sheep model of diffuse traumatic brain injury. Format: in vivo. From the text: (§1) Briefly, 2-year-old male Merino sheep were impacted in the left temporal region by a humane stunner. Sheep were continuously anesthetized and ventilated using 2.5% isoflurane in oxygen (4 L/min). Animals were then placed into a prone sphinx position, and restrained to the table, leaving the neck and head mobile relative to the body. Impact injury was induced at the midpoint between the left supraorbital process and the left external auditory meatus using a Captive humane bolt stunner armed with a number 7 red charge (model KML, Karl Schermer & Co., Germany). The injury produced by this method has been fully characterised, and mimics that seen in human TBI victims. (Lewis, S. B., Finnie, J. W., Blumbergs, P. C., Scott, G., Manavis, J. Brown, C., Reilly, P. L., Jones, N. R., McLean, A. J. (1996) A head impact model of early axonal injury in the sheep. J Neurotrauma 13, 505-514.)
The injury was carried out in sheep as previously described. In addition to the burr hole for ICP monitoring, a second burr hole 1 cm lateral to the sagittal midline and over the left fronto-parietal suture allowed insertion of the distal end of a LICOX® PbtO2 probe to a depth of 2 cm. The probe was attached to a LICOX® brain tissue oxygen monitoring system (Integra, USA) for digital recording. After insertion of the probes, both burr holes were sealed using bone wax. ICP and PbtO2 was recorded every 30 min for a period of 4 hours.

For test [3] the test system is unchanged. Description: Intracranial pressure in the sheep model of diffuse traumatic brain injury. Format: in vivo. The conditions noted are these: administered at 30 min after injury. On the procedure: Following traumatic injury, intracranial pressure was measured in the sheep using a standard neurosurgical “bolt” and pressure transducer (FIG. 3).
as §1
After injury, animals were stabilised and the heads restrained to the operating table to facilitate insertion of intracranial pressure (ICP) and brain tissue oxygenation (PbtO2) probes between 15 and 30 min after trauma. Following exposure of the skull, a 5.8 mm burr hole was performed at a point 4 cm lateral to the sagittal midline on the ipsilateral side, the dura matter opened and a calibrated Codman Microsensor ICP transducer inserted such that the tip of the sensor was 1.5 cm into the parenchyma of the left parietal lobe. The probe was attached to a Codman ICP Express monitoring system (Codman and Shurtleff Inc., USA) for digital recording.

Test [4] concerns rat diffuse traumatic brain injury model. Description: ICP after diffuse traumatic brain injury plus hypoxia in the rat. Particulars: male Sprague Dawley rats, diffuse TBI + 15 min hypoxia. Format: in vivo. On the procedure:
Male Sprague Dawley rats were injured using a diffuse traumatic brain injury model, and then made hypoxic for a period of 15 minutes, before being ventilated on normal air. ICP was monitored using a Codman ICP pressure sensor for the ensuing 4 hours. After injury, ICP increased from a mean of 4.88±0.12 mm Hg to a mean of 9.23±0.28 mm Hg, an increase of 96%. Treatment with the NK1 antagonist, NAT, reduced ICP by a mean value 21%. […] Male Sprague Dawley rats were injured using the widely accepted diffuse traumatic brain injury model, and then made hypoxic for a period of 15 minutes, before being ventilated on normal air. ICP was monitored using a Codman ICP pressure sensor for the ensuing 4 hours. After injury, ICP increased from a mean of 4.88±0.12 mm Hg to a mean of 9.23±0.28 mm Hg, an increase of 96%. Treatment with the NK1 antagonist, NAT, reduced ICP by a mean value 21% (FIG. 6).

Test [5] deals with rat model of traumatic brain injury. As to the kind of experiment: Diffusion weighted imaging of cerebral oedema after severe diffuse traumatic brain injury. Format: in vivo. The conditions noted are these: severe diffuse TBI, treatment 30 min after insult, 10^-5 mol/kg, imaged 5 h after injury. The text has this: After a traumatic injury (left-hand panel), areas of hyperintensity reflect an increased ADC, which at this early time point is indicative of vasogenic edema.
In order to observe whether a substance P receptor antagonist could facilitate the movement of water out of the brain, we carried out nuclear magnetic resonance spectroscopy (NMR) studies using a rat model of traumatic brain injury. Diffusion-weighted NMR images were generated following trauma (FIG. 2, left-hand panel).
Following injury, a number of “brighter” areas are clearly visible within the brain. These “bright” areas correlate with regions where extracellular water is gathering within the brain.

The subject of test [6] is aquaporin 4 (AQP-4). As to the kind of experiment: Perivascular AQP-4 immunostaining (electron microscopy) after diffuse traumatic brain injury. Format: in vivo. Particulars: rat diffuse TBI, intravenous injection at 30 min after injury, 5 h after injury. The text has this: We decided to study the water channels associated with the cerebral vasculature, and in particular aquaporin 4 (AQP-4), in order to see whether there were any changes in the expression of these channels. For these studies, a rat model was used, and raised ICP was induced by diffuse traumatic brain injury. In this model, a traumatic brain injury was induced using the impact-acceleration model. Briefly, the impact-acceleration device delivers an accelerating blow centrally on to the dorsal surface of the skull of halothane anesthetized male Sprague-Dawley rats (380-420 g). The point of impact was protected with a stainless steel disc to prevent skull fracture, while the head was subsequently decelerated using either a foam or gel filled cushion. For severe injury, the 450 g brass weight is dropped from a height of 2 metres. The impact results in extensive, diffuse neuropathological damage throughout the brain with associated neurological deficits. Immunohistochemical labelling was used to investigate the expression of aquaporin-4 (FIG. 1). Briefly, electron microscopy of AQP-4 used a rabbit polyclonal antibody (Alpha Diagnostic International, Inc., San Antonio) as the primary antibody, with immunolabelling completed using biotinylated secondary antibody (goat anti-rabbit IgG) and streptavidin-peroxidase complex (Rockland, Gilbertsville, Pa.). […]

For the molecule `CC(=O)N[C@@H](Cc1c[nH]c2ccccc12)C(=O)O` [N-acetyl-L-tryptophan], the “optimal dose, based on ability to attenuate blood brain barrier permeability after injury” value in test [1] was determined as 2.5 mg/kg. In test [2] (NK1 receptor antagonist after injury), the “time for brain oxygen levels to be back to normal limits” value lay within 3 to 4 h. Further, the “effect on brain oxygen levels” value in test [2] (administered at 30 min after injury, listed as N-Acetyl Tryptophan) is “Restores Oxygen Levels to Normal”; in test [2] (administered at 30 min after injury, listed as NK1 antagonist) it was “immediate improvement in brain oxygen status”; in test [2] (administered at 30 min after injury, listed as NK1 receptor antagonist), “oxygen levels start to rapidly recover”. The “time after TBI by which brain oxygen values returned to normal (control) levels” value in test [2] (administered at 30 min after injury, time after TBI) is at most 4 h. The “effect on intracranial pressure (ICP)” value in test [3] (listed as N-Acetyl Tryptophan) was “Reduces Intracranial Pressure”; in test [3] (listed as NK1 antagonist), “immediately decrease in ICP”; in test [3] (listed as NK1 receptor antagonist), “ICP always fell”. Further, the “time for ICP to return to normal (sham) levels after administration” value was 3 h in test [3] (listed as NK1 antagonist) and 3 to 4 h in test [3] (listed as NK receptor antagonist). In test [4], the “functional outcome relative to vehicle treated controls” value is listed as “significant improvement in functional outcome”. In test [4] (ICP monitored 4 hours), the “mean reduction of ICP” value turned out to be 21%. Moreover, the “cerebral oedema (areas of hyperintensity / water gathering) on diffusion-weighted images” value in test [5] is recorded as “no indication of any water gathering in these areas”; in test [5] (listed as NK1 antagonist) it was “clearly reduces areas of hyperintensity”. The “expression of aquaporin-4 (perivascular AQP-4 channels)” value is on record as “rise in the expression of aquaporin-4 to, or indeed above, pre-injury levels” in test [6] and “rapid restoration of AQP-4 channels” in test [6] (listed as NAT).
